Values after ≈ are worked out from the molar mass of the structure shown. Like-named read-outs stand apart in the source and are kept apart here. Starred links: 1 amine or outer side, 2 acyl side, 3 side chain; linkers in the order of their positions; H or OH if unused. Non-standard residues stand in square brackets, D forms with d. Residues, ends and D or L forms follow the SMILES beside them. *: point of attachment. NH(3-CONH2-4-OMe-phenyl) = COc1ccc(N*)cc1C(N)=O; 3Abz(6-OMe) = COc1ccc(N[*:1])cc1C(=O)[*:2]; X1 = O=C(O)COc1ccc(N[*:1])cc1C(=O)[*:2]
How the values were obtained:
[1] = system: isolated human erythrocytes; assay: cells; assay type: cell-based; settings: Homo sapiens, Erythrocyte, 1 h, read-out: Hemolysis EC50
Experimental: Hemolysis assay: Cytotoxicity was also evaluated in a hemolysis assay using isolated human erythrocytes. Pooled whole human blood was centrifuged to separate the red blood cells (RBC). The isolated RBCs were rinsed and diluted in Tris-buffered saline (TBS buffer, pH 7.4) to obtain a 0.22% RBC stock suspension. Serial two-fold dilutions of test agent were assayed over a concentration range of 1000 to 0.48 μg/ml with shaking for 1 hour at 37° C. At the conclusion of the incubation time, samples were centrifuged and 30 μl of the supernatant was added to 100 μl H2O. OD405 measurements were read for hemoglobin concentration. The bee venom peptide melittin was used as a positive control. EC50 values were determined using a four parameter logistic equation: Y=Bottom+(Top-Bottom)/(1+10̂((LogEC50-X)*HillSlope)).

[2] = Cytotoxicity colorimetric assay, HepG2; assay type: cell-based, human; settings: human, HepG2 cells, one hour in serum-free media
Experimental: (§1) This assay measures the bioreduction of a novel tetrazolium compound to a soluble formazan product by viable cells. HepG2 cells were seeded in 96 well plates at 3×10^4 cells/well in MEM medium with 10% fetal bovine serum (FBS) 24 hours prior to use. NIH/3T3 cells were seeded in 96 well plates at 2×10^4 cells/well in DMEM medium with 10% bovine calf serum (BCS) 24 hours prior to use. Cell monolayers were rinsed in serum-free media and incubated for one hour with test agent in serum-free media. After incubation, the media was replaced with serum supplemented media and live cells were measured using the Cell Titer 96 Aqueous […] Assay kit (Promega, Madison, Wis.). EC50 values were determined using a four parameter logistic equation: Y=Bottom+(Top-Bottom)/(1+10̂((LogEC50-X)*HillSlope)).

[3] = Cytotoxicity colorimetric assay, NIH/3T3; assay type: cell-based, mouse; settings: mouse, NIH/3T3 cells, one hour in serum-free media
Experimental: as §1

Unfractionated heparin = assay: aPTT clotting assay, UFH 0.4 U/mL in plasma (Example 10); assay type: biochemical; settings: unfractionated heparin 0.4 U/mL in plasma; aPTT clotting
Experimental: aPTT clotting Assay: Unfractionated heparin was mixed with plasma at a final concentration of 0.4 U/mL (or concentration which increases aPTT time to between 120 and 300 seconds). […] The ACL Elite Hemostasis analyzer (Beckman Coulter™) was used to add aPTT reagent (HemosIL SynthASil) to supplemented plasma. Clotting was initiated by addition of CaCl2 and time to clot was recorded.

UFH = assay: FXa amidolytic assay (Example 10), UFH; settings: read-out: Heparin FXa uM EC50; UFH 0.03 units/mL; human antithrombin, bovine Factor Xa
Experimental: (§2) Two μl of test agent are added (range between 0.01 and 23 ug/ml) and incubated for 5 minutes at 23° C. Bovine Factor Xa was added to a final concentration of 0.636 nkat/mL and incubated for a further 10 minutes at 23° C.

enoxaparin = assay: FXa amidolytic assay (Example 10), enoxaparin; settings: read-out: Enox FXa EC50; enoxaparin 0.1 ug/ml; human antithrombin, bovine Factor Xa
Experimental: as §2

tinzaparin = assay: FXa amidolytic assay (Example 10), tinzaparin; settings: read-out: Tinzap FXa EC50; tinzaparin 0.1 ug/ml; human antithrombin, bovine Factor Xa
Experimental: as §2

fondaparinux = assay: FXa amidolytic assay (Example 10), fondaparinux; settings: for EC50: read-out: Fondap FXa EC50, fondaparinux 0.02 μg/mL, human antithrombin, bovine Factor Xa
Experimental: as §2

SMILES	EC50 ([1]; human RBC, 1 hour at 37° C.)	EC50 at 1 h [2]	EC50 at 1 h [3]	EC50 (Unfractionated heparin)	EC50 (UFH)	EC50 (enoxaparin)	EC50 (tinzaparin)	EC50 (fondaparinux)	EC50 [1]	Potent LMWH-antagonists with superior anti-fondaparinux activity (summary) (fondaparinux)
COc1cc(OC)c(C(=O)N[C@H]2CC[C@H](NC(=O)c3cc(C(=O)N[C@H]4CC[C@H](NC(=O)c5cc(C(=O)NCCN)c(OC)cc5OC)CC4)c(OC)cc3OC)CC2)cc1C(=O)NCCN [Compound 346]	> 1000 µg/mL	> 1000 µg/mL	> 1000 µg/mL	8810 nM	0.772 µM	198 nM	410 nM	146 nM		
COc1cc(OC)c(C(=O)NC2CCC(NC(=O)c3cc(C(=O)NCCN)c(OC)cc3OC)CC2)cc1C(=O)O (stereo not shown) [Compound 347]		> 1000 µg/mL	> 1000 µg/mL	> 10000 nM	> 20 µM	> 5000 nM	> 5000 nM	> 10000 nM		
COc1ccc(NC(=O)[C@H](CCCCN)NC(=O)c2cc(NC(=O)[C@H](CCCCN)NC(=O)c3cc(NC(=O)[C@H](CCCCN)NC(=O)c4cc(NC(=O)[C@H](CCCCN)NC(=O)c5c[nH]c6ccccc56)ccc4OC)ccc3OC)ccc2OC)cc1C(N)=O [Compound 349]	> 1000 µg/mL	236 µg/mL (≈ 186 µM)	108 µg/mL (≈ 85.1 µM)	2020 nM	0.213 µM	108 nM	90 nM	129 nM		
COc1ccc(NC(=O)[C@H](CCCCN)NC(=O)c2cc(NC(=O)[C@H](CCCCN)NC(=O)c3cc(NC(=O)[C@H](CCCCN)NC(=O)c4cc(NC(=O)[C@H](CCCCN)NC(=O)c5c[nH]c6ccccc56)ccc4OC)ccc3OC)ccc2OCC(=O)O)cc1C(N)=O [Compound 350]	> 1000 µg/mL	425 µg/mL (≈ 324 µM)	150 µg/mL (≈ 114 µM)	627 nM	0.291 µM	147 nM	128 nM	146 nM		
COc1ccc(NC(=O)[C@H](CCCCN)NC(=O)c2cc(NC(=O)[C@H](CCCCN)NC(=O)c3cc(NC(=O)[C@H](CCCCN)NC(=O)c4cc(NC(=O)[C@H](CCCCN)NC(=O)[C@@H](N)Cc5c[nH]c6ccccc56)ccc4OC)ccc3OC)ccc2OCC(=O)O)cc1C(N)=O [Compound 352] (H-WK[3Abz(6-OMe)]K[3Abz(6-OMe)]K[X1]K-{NH(3-CONH2-4-OMe-phenyl)})	> 1000 µg/mL	758 µg/mL (≈ 559 µM)	> 1000 µg/mL	2270 nM	0.287 µM	299 nM	162 nM	934 nM		
COc1ccc(NC(=O)[C@H](CCCCN)NC(=O)c2cc(NC(=O)[C@H](CCCCN)NC(=O)c3cc(NC(=O)[C@H](CCCCN)NC(=O)c4cc(NC(=O)[C@H](CCCCN)NC(=O)c5ccccc5)ccc4OC)ccc3OC)ccc2OC)cc1C(N)=O [Compound 353]		> 1000 µg/mL	~100 µg/mL (≈ 81.3 µM)	1630 nM	0.198 µM	123 nM	104 nM	407 nM	> 1000 µg/mL	
COc1ccc(NC(=O)[C@H](CCCCN)NC(=O)c2cc(NC(=O)[C@H](CCCCN)NC(=O)c3cc(NC(=O)[C@H](CCCCN)NC(=O)c4cc(NC(=O)[C@H](CCCCN)NC(=O)c5ccccc5)ccc4OC)ccc3OC)ccc2OCC(=O)O)cc1C(N)=O [Compound 354]		> 1000 µg/mL	> 1000 µg/mL	2200 nM	0.214 µM	117 nM	109 nM	202 nM	> 1000 µg/mL	superior anti-fondaparinux activity
COc1ccc(NC(=O)[C@H](CCCCN)NC(=O)c2cc(NC(=O)[C@H](CCCCN)NC(=O)c3cc(NC(=O)[C@H](CCCCN)NC(=O)c4cc(NC(=O)[C@H](CCCCN)NC(=O)Cc5ccccc5)ccc4OC)ccc3OC)ccc2OC)cc1C(N)=O [Compound 355]		133 µg/mL (≈ 107 µM)	52 µg/mL (≈ 41.8 µM)	1410 nM	0.147 µM	95 nM	67 nM	800 nM	> 1000 µg/mL	
COC(=O)c1ccc(C(=O)N[C@@H](CCCCN)C(=O)Nc2ccc(OC)c(C(=O)N[C@@H](CCCCN)C(=O)Nc3ccc(OC)c(C(=O)N[C@@H](CCCCN)C(=O)Nc4ccc(OC)c(C(=O)N[C@@H](CCCCN)C(=O)Nc5ccc(OC)c(C(N)=O)c5)c4)c3)c2)cc1 [Compound 359]	> 1000 µg/mL	> 1000 µg/mL	> 1000 µg/mL	1390 nM	0.189 µM	90 nM	73 nM	115 nM		
COc1cc(OCC(N)=O)c(C(=O)N[C@H]2CC[C@H](NC(=O)c3cc(C(=O)NCCN(C)C)c(OCCCCCN)cc3OCCCCCN)CC2)cc1C(=O)N[C@H]1CC[C@H](NC(=O)c2cc(C(=O)NCCN(C)C)c(OCCCCCN)cc2OCCCCCN)CC1 [Compound 379]	> 1000 µg/mL	> 1000 µg/mL	650 µg/mL (≈ 499 µM)	1620 nM	0.13 µM	464 nM	95 nM	> 10000 nM		
COc1cc(OC)c(C(=O)N[C@H]2CC[C@@H](NC(=O)c3ccc(OCCCCCNC(=N)N)cc3OCCCCCNC(=N)N)CC2)cc1C(=O)N[C@H]1CC[C@@H](NC(=O)c2ccc(OCCCCCNC(=N)N)cc2OCCCCCNC(=N)N)CC1 [Compound 380]	> 1000 µg/mL	81.3 µg/mL (≈ 67.8 µM)	43.2 µg/mL (≈ 36 µM)	1690 nM	0.164 µM	89 nM	71 nM	180 nM		
COc1cc(OC)c(C(=O)N[C@H]2CC[C@@H](NC(=O)c3cc(C(=O)N[C@H]4CC[C@@H](NC(=O)c5cc(C(=O)NCCN)c(OC)cc5OC)CC4)c(OC)cc3OC)CC2)cc1C(=O)NCCN [Compound 381]	22.4 µg/mL (≈ 24.4 µM)	1130 µg/mL (≈ 1230 µM)	1080 µg/mL (≈ 1180 µM)	2690 nM	0.777 µM	289 nM	274 nM	493 nM		
COc1cc(OC)c(C(=O)N[C@H]2CC[C@H](NC(=O)c3cc(C(=O)N[C@H]4CC[C@H](NC(=O)c5cc(C(=O)NCCCN)c(OC)cc5OC)CC4)c(OC)cc3OC)CC2)cc1C(=O)NCCCN [Compound 406]	12.1 µg/mL (≈ 12.8 µM)	209 µg/mL (≈ 220 µM)	215 µg/mL (≈ 227 µM)	2460 nM		299 nM	436 nM	113 nM		
COc1cc(OC)c(C(=O)Nc2ccc(NC(=O)c3cc(C(=O)NCCN(C)C)c(OCCCCCN)cc3OCCCCCN)cc2)cc1C(=O)Nc1ccc(NC(=O)c2cc(C(=O)NCCN(C)C)c(OCCCCCN)cc2OCCCCCN)cc1 [Compound 410]		250 µg/mL (≈ 200 µM)	97.5 µg/mL (≈ 78.1 µM)	640 nM		56 nM	68 nM	41 nM	> 1000 µg/mL	
COc1cc(OC)c(C(=O)Nc2ccc(NC(=O)c3ccc(OCCCCCN)cc3OCCCCCN)cc2)cc1C(=O)Nc1ccc(NC(=O)c2ccc(OCCCCCN)cc2OCCCCCN)cc1 [Compound 411]	> 1000 µg/mL	590 µg/mL (≈ 579 µM)	86 µg/mL (≈ 84.4 µM)	1150 nM		96 nM	123 nM	61 nM		superior anti-fondaparinux activity
